Results from patent US9314498B2, “Bacteriocin derived from Lactobacillus rhamnosus” (priority 2011, dated 2016).

Experiments:
[1] = tested on: Porphyromonas gingivalis LPS (P.g-LPS) on RAW264.7 macrophage-like cells, ccl2; test: LPS inactivation: ccl2 secretion of RAW264.7 cells (ELISA); format: cell-based, mouse
Method: (§1) As a medium, RPMI 1640 medium supplemented with 10% FBS (Fetal Bovine Serum) (Biological industries, Haemek, Israel), 1% antibiotic and 1% L-glutamine was used. In each well of a 24-well plate, 400 μl of the medium was placed, and 100,000 cells/well of mouse-derived RAW264.7 macrophage-like cells were inoculated thereto.
(§2) The bacteriocin Kog1 or Kog2, which was the same as in Example 1, was incubated in an Eppendorf tube under each of the following 4 conditions together with Porphyromonas gingivalis LPS (manufactured by InvivoGen) (hereinafter referred to as P.g-LPS) and the same medium as described above, at 37° C. under a gas phase of 5% CO2 for 2 hours: (1) 100 ng/ml P.g-LPS positive control; (2) 100 ng/ml P.g-LPS+5 μM Kog1 or Kog2; (3) 100 ng/ml P.g-LPS+10 μM Kog1 or Kog2; (4) 100 ng/ml P.g-LPS+20 μM Kog1 or Kog2.
(§3) The above-described medium placed in each well of the 24-well plate was removed using a pipetteman, and the medium in the Eppendorf tube for each of the 4 conditions described above was placed in the plate, followed by culturing the cells in the well plate at 37° C. under a gas phase of 5% CO2 for 12 hours. Thereafter, the culture supernatant was collected, and the amount of a chemokine ccl2 or the amount of a cytokine TNF-α secreted into the medium was quantified by the ELISA method by measuring the absorbance at 450 nm using a microplate reader. Since both ccl2 and TNF-α are involved in formation of inflammation, analysis of the relationship between the endotoxin LPS and the bacteriocins Kog1 and Kog2 is possible.

[2] = tested on: Porphyromonas gingivalis LPS (P.g-LPS) on RAW264.7 macrophage-like cells, TNF-α; test: LPS inactivation: TNF-α secretion of RAW264.7 cells (ELISA); format: cell-based
Method: as §1, §2, §3

[3] = tested on: Streptococcus sobrinus B-13 strain; test: Antimicrobial activity against Streptococcus sobrinus B-13; format: cell-based; conditions: tested 0 to 100 μM
Method: [The procedure below names another organism; the source lists this organism under the same test.] (§4) The Candida albicans GDH18 strain was precultured using SD medium (Difco) at 37° C. for 24 hours under aerobic conditions. The Streptococcus sobrinus B-13 strain, Streptococcus mutans NCTC10449 strain and Streptococcus mutans Ingbritt strain were precultured using TSB medium (Difco) supplemented with 5% yeast extract (Difco) at 37° C. for 24 hours under aerobic conditions. The Porphyromonas gingivalis Hudoi001 strain and Aggregatibacter actinomycetemcomitans Hudoe001 strain were precultured using BHI medium (Difco) supplemented with hemin (5 mg/L) and vitamin K3 (1 mg/L) at 37° C. for 96 hours under anaerobic conditions with Anaero Pack System (Mitsubishi Gas Chemical Company, Inc.).
(§5) After the culture, the cells of the Candida, cariogenic bacteria and periodontal disease bacteria were collected by centrifugation at 1000×g, and washed twice with 1 mM phosphate buffer (pH 6.8). The cells were then suspended such that the final concentration was 1×10^8 cfu/ml or 1×10^7 cells/m. For suspension of the Streptococcus strains, ultrasonic treatment was also carried out.
Evaluation of the antimicrobial activity was carried out by the method by Edgerton and others (1998) with some modifications. With 20 mL of 1 mM phosphate buffer containing 0 to 25 μM Kog1 or Kog2 synthesized in Example 1, 20 μl of the suspension of the Candida albicans GDH18 strain cultured and prepared by the method described in the above Preparation Example was mixed, and the resulting mixture was incubated at 37° C. for 90 minutes with shaking. As a control, 20 ml of 1 mM phosphate buffer alone was used. The reaction was stopped by addition of 360 ml of YNB medium (Difco), and the number of colonies formed (colony forming units; CFUs) was counted together with the number of colonies in the control, to determine the percentage of living bacterial cells. That is, the equation of: (CFUs of suspension containing Kog1 or Kog2/CFU ml^−1 of control suspension)×100 was used to calculate the percentage. […]

[4] = tested on: Candida albicans GDH18 strain; test: Antimicrobial activity (CFU count, percentage of living cells) against Candida albicans GDH18; format: cell-based; conditions: 37° C., 90 minutes, 1 mM phosphate buffer
Excerpt: As the Candida, cariogenic bacteria and periodontal disease bacteria, the Candida albicans GDH18 strain, Streptococcus sobrinus B-13 strain, Streptococcus mutans NCTC10449 strain, Streptococcus mutans Ingbritt strain, Porphyromonas gingivalis Hudoi001 strain and Aggregatibacter actinomycetemcomitans Hudoe001 strain were used. The test strains were provided from Faculty of Dentistry, Hiroshima University, Japan, and Hiroshima University Dental Hospital.
as §4, §5
Evaluation of the antimicrobial activity was carried out by the method by Edgerton and others (1998) with some modifications. With 20 mL of 1 mM phosphate buffer containing 0 to 25 μM Kog1 or Kog2 synthesized in Example 1, 20 μl of the suspension of the Candida albicans GDH18 strain cultured and prepared by the method described in the above Preparation Example was mixed, and the resulting mixture was incubated at 37° C. for 90 minutes with shaking. As a control, 20 ml of 1 mM phosphate buffer alone was used. The reaction was stopped by addition of 360 ml of YNB medium (Difco), and the number of colonies formed (colony forming units; CFUs) was counted together with the number of colonies in the control, to determine the percentage of living bacterial cells. That is, the equation of: (CFUs of suspension containing Kog1 or Kog2/CFU ml^−1 of control suspension)×100 was used to calculate the percentage.

[5] = 100 ng/ml P.g-LPS + Kog2 above a certain level, as amount added increases
[6] = 100 ng/ml P.g-LPS + small amount of Kog2 (5 μM)

Substance: Kog2: peptide having the amino acid sequence shown in SEQ ID NO: 2, bacteriocin of Lactobacillus rhamnosus, synthesized by the tea-bag method (MTKVRSSRLRPLTLRLLSAPARAQFLTIACRAILRYDLINS; listed as Lactobacillus rhamnosus)
- amount of the chemokine ccl2 secreted [1, 5]: decreases
- amount of the chemokine ccl2 secreted [1, 6]: increases
- amount of the cytokine TNF-α secreted [2, 5]: decreases
- amount of the cytokine TNF-α secreted [2, 6]: increases
- peptide concentration at which 100% of the strain was killed [3]: 0.39 µM
- peptide concentration at which 100% of the strain was killed [4]: 0.39 µM
